Earlier results on three compounds are cited in US20200132604A1, “METHODS OF DETERMINING PROTEIN STRUCTURE USING TWO-PHOTON FLUORESCENCE MEASUREMENTS” (Biodesy, Inc., priority 2017, published 2020).

One data set relates to human IgG-Fc. Particulars: Sugita, et al. (2013).
Data set [1] has as its target monomeric forms of avidin or streptavidin. Particulars: read-out: biotin-binding affinity.

As for NARKFYKG, the affinity in the data set with human IgG-Fc is 6.5e+06 M⁻¹.
Regarding `O=C(O)CCCC[C@@H]1SC[C@@H]2NC(=O)N[C@@H]21` [biotin], in data set [1], the Kd was approximately 10 nM.
Turning to NKFRGKYK, the affinity in the data set with human IgG-Fc was 8.9e+06 M⁻¹.
